Results as given in PubChem BioAssay (NCI).
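96-well plates; 48 h exposure; 5 concentrations. Endpoints by linear interpolation between flanking doses. Not reached: highest tested concentration assigned. At the TGI there is no net growth.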

Assays:
Experiment in all cases: DTP human tumour cell line panel, 48 h
A549 NSCLC = tested on: A549 NSCLC
CCRF-CEM leukemia = tested on: CCRF-CEM leukemia
COLO 205 colon = tested on: COLO 205 colon
HT29 colon = tested on: HT29 colon
LOX IMVI melanoma = tested on: LOX IMVI melanoma
MOLT-4 leukemia = tested on: MOLT-4 leukemia
OVCAR-5 ovarian = tested on: OVCAR-5 ovarian
OVCAR-8 ovarian = tested on: OVCAR-8 ovarian
UACC-257 melanoma = tested on: UACC-257 melanoma
UACC-62 melanoma = tested on: UACC-62 melanoma

Compound | TGI (A549 NSCLC) [µM] | TGI (CCRF-CEM leukemia) [µM] | TGI (COLO 205 colon) [µM] | TGI (HT29 colon) [µM] | TGI (LOX IMVI melanoma) [µM] | TGI (MOLT-4 leukemia) [µM] | TGI (OVCAR-5 ovarian) [µM] | TGI (OVCAR-8 ovarian) [µM] | TGI (UACC-257 melanoma) [µM] | TGI (UACC-62 melanoma) [µM]
O=c1oc2ccc3ccccc3c2cc1-c1cn2c(n1)sc1ccccc12 | > 100 | > 100 | > 100 | > 100 | > 100 | 14 | > 100 | > 100 | > 100 | > 100
CCCCCCCCCCCCCCCC(=O)Nc1ccn(C2CCC(COP(=O)(O)OCC3OC(n4cc(F)c(=O)[nH]c4=O)CC3OC(C)=O)O2)c(=O)n1 (stereo not given) | > 54.2 | 19.7 | 28.5 | 32.4 | 39.8 | 30.4 | > 74.5 | > 72.2 | 53.6 | 61.6
CC[C@@H]1CC[C@@H]2[C@H](CC[C@]3(C)[C@@H](OC(C)=O)CC[C@@H]23)[C@H]1C(=O)OC | 70.8 | 47.9 | 29.5 | 67.2 | 35.6 | 42 | 59.5 | 76.9 | 54.3 | 49.4
c1ccc2nn(C3CCCO3)nc2c1 (stereo not given) | > 100 | > 100 | > 100 | > 100 | – | > 100 | > 100 | > 100 | > 100 | > 100
c1ccc2cc(CNCCCCNCCCNCc3ccc4ccccc4c3)ccc2c1 | 4.25 | > 100 | – | 0.538 | 0.358 | – | 3.61 | 3.2 | 3.55 | 3.52
Nc1nc(N)c2ncn(-c3ccccc3)c2n1 | > 100 | > 100 | > 100 | > 100 | > 100 | > 100 | > 100 | > 100 | > 100 | > 100
O=C1Nc2ccccc2/C1=C\c1c(-c2ccccc2)nc2n1CCS2 | > 100 | > 100 | 81.3 | 39.9 | 38.6 | 81 | 58.5 | > 100 | 45.9 | 27.4
CC1(C)SCc2nc3ccccc3n21 | > 100 | > 100 | > 100 | > 100 | > 100 | > 100 | > 100 | > 100 | > 100 | > 100
CCOC(=O)Nc1n[nH]nc1Cl | > 100 | – | > 100 | > 100 | > 100 | > 100 | > 100 | > 100 | > 100 | > 100
COc1cc2cc3c4cc(OC)c(OC)cc4cc[n+]3c(C)c2cc1OC | > 100 | > 100 | > 100 | > 100 | > 100 | > 100 | > 100 | > 100 | > 100 | 98.6
O=C(O)C1=CN(c2ccncc2)C(c2ccco2)=CC1c1ccccc1[N+](=O)[O-] (stereo not given) | 34.2 | > 100 | 32.9 | 6.18 | 3.85 | 14 | 25.5 | 54.8 | 5.35 | 33.6
Cc1c(-c2nc(N)c(C#N)c(N)c2C#N)c(=O)oc2ccccc12 | > 100 | > 100 | > 100 | > 100 | > 100 | – | > 100 | > 100 | > 100 | > 100
C(=N\NC1=NCCN1)/c1cccc2cc3ccncc3nc12 | 20.2 | 3.8 | 15.5 | 10.5 | 3.39 | 10.8 | – | 5.15 | 24.6 | 31.4
CCOC(=O)c1cn(CC)c2ccc3ccsc3c2c1=O | > 100 | > 100 | > 100 | > 100 | > 100 | > 100 | > 100 | > 100 | > 100 | > 100
C/C1=C/C[C@@H](/C(C)=C/c2csc(C)n2)OC(=O)C[C@H](O)C(C)(C)C(=O)[C@H](C)[C@@H](O)[C@@H](C)CCC1 | 0.181 | 0.894 | – | 0.335 | 0.143 | 0.394 | 0.189 | 0.295 | – | 0.247
C#C[C@]1(O)[C@@H](CO)O[C@@H](n2ccc(N)nc2=O)[C@@H]1O | > 100 | 4.27 | 0.203 | – | 0.0945 | > 32 | – | > 100 | 8.03 | 0.4
COC(=O)[C@@H](OC(C)=O)[C@@H](OC(C)=O)c1nnc2ccc(Cl)nn12 | > 100 | > 100 | > 100 | > 100 | > 100 | > 100 | > 100 | > 100 | > 100 | > 100
Cc1[nH]c2nc3c(ncn3COCCO)c(=O)n2c1C(c1ccccc1)(c1ccccc1)c1ccccc1 | 40.5 | > 52.9 | 31 | 24.2 | 27.8 | 24.3 | 32.7 | 32.4 | 27.4 | 24
